Laboratory results taken from patent US10023612B2, “Method of treating endometriosis” (ValiRx PLC, priority 2011, dated 2018).
Where “and” joins values, the source holds several entries; their conditions need not be identical. Equal entries are not always repeated.

How the values were obtained:
endometriosis lesion = test: First study: in-vivo model of endometriosis, tissue from K-rasV12/Ah-Cre/ROSA26R-LacZ donor mice in wild-type animals; conditions: four treated animals, injected for 21 days
Description: In a first study, a total of 4 treatment and 5 control animals were generated in a novel in-vivo model of endometriosis (Research Horizons, University of Cambridge, 2009 Issue 8, GB 0715635.9) K-rasV12/Ah-Cre transgenic mice were crossed with Rosa26R mice to generate KrasV12+/−/Ah-Cre+/−/ROSA26R-LacZ+/− transgenic mice. The F1 offspring were inbred to generate F2 K-rasV12+/−/Ah-Cre+/+/ROSA26R-LacZ+/+ transgenic mice. The presence of the transgenes was determined by PCR using gene specific primers for K-ras, Cre and Rosa26R-LacZ. Tissue was collected from donor animals previously treated with hormones etc. and was divided between wild-type animals that were then injected with drug or vehicle for 21 days.

[1] = test system: endometriosis lesions (plugs of uterine tissue); test: Dose ranging prevention study, transplanted plugs of uterine tissue; format: in vivo, C57BL6 mice; conditions: for Lesion burden Ave / Lesion growth Ave: average per mouse; for Lesion burden Mean / Lesion establishment Mean / Lesion growth Mean: group mean; for Lesion burden P1 / Lesion burden P2 / Lesion burden P3 / Lesion burden P4 / Lesion burden P5 / Lesion burden P6 / Lesion growth M1 / Lesion growth M2 / Lesion growth P1 / Lesion growth P2 / Lesion growth P3 / Lesion growth P4 / Lesion establishment M1 / Lesion establishment M2 / Lesion establishment P1 / Lesion establishment P2 / Lesion establishment P3 / Lesion establishment P4: individual mouse; for Lesion establishment M1 / Lesion establishment M2 / Lesion establishment P1 / Lesion establishment P2 / Lesion establishment P3 / Lesion establishment P4: 1 or 0; for Lesion establishment Ave: per mouse
[2] = mouse, in vivo
Description: 8-10 week old, female nulliparous C57BL6 mice were acclimatised for 1 week. A group of 10 female animals were dosed with 10 ng of peptide injected subcutaneously 3 days prior to experimentation with a control group of 10 animals treated with vehicle alone.
5 male C57BL6 animals were introduced and the females checked daily for mucous plug (before 9 a.m.). When mucous plug was recorded the females were evaluated for:
a) Length of possible pregnancy (days)
c) Anomalies in offspring

[3] = mouse, in vivo; remark: listed apart in the source
Description: Offspring from dosed females were mated and checked for fertility to determine possible inheritable effects.

## Ac-PPPHPHARIK-NH2 [ValiRx1, Ac-Pro-Pro-Pro-His-Pro-His-Ala-Arg-Ile-Lys-NH2]
Endometriosis lesion
  absence of lesion following treatment: three showed complete absence of lesion
[1]; 1 ng, 10 ng or 100 ng s.c. daily
  lesion growth following treatment vs control group: significantly reduced
[1]; 1 ng/mouse s.c. daily
  Lesion burden Ave: 1.1 mm^2 and 1.9 mm^2 and 12.1 mm^2 and 6.5 mm^2 and 8.5 mm^2
  Lesion growth Ave: 6.5 mm^2 and 8.5 mm^2 and 1.3 mm^2 and 1.9 mm^2 and 12.1 mm^2
  Lesion burden Mean: 6.02 mm^2
  Lesion establishment Mean: 96.67%
  Lesion growth Mean: 6.23 mm^2
  Lesion burden P1: 1.8 mm^2 and 1.1 mm^2 and 4.2 mm^2 and 15.1 mm^2 and 10.2 mm^2
  Lesion burden P2: 0.2 mm^2 and 3.1 mm^2 and 16.7 mm^2 and 5.7 mm^2 and 10.6 mm^2
  Lesion burden P3: 0.1 mm^2 and 2.5 mm^2 and 15.2 mm^2 and 8.0 mm^2 and 16.6 mm^2
  Lesion burden P4: 0.0 mm^2 and 0.2 mm^2 and 17.0 mm^2 and 3.8 mm^2 (2×)
  Lesion burden P5: 3.5 mm^2 and 1.1 mm^2 and 11.2 mm^2 and 0.2 mm^2 and 0.5 mm^2
  Lesion burden P6: 1.1 mm^2 and 3.5 mm^2 and 8.0 mm^2 and 6.2 mm^2 and 9.4 mm^2
  Lesion growth M1: 0.196 mm^2 and 0.503 mm^2 and 3.456 mm^2 and 1.131 mm^2 and 11.2 mm^2
  Lesion growth M2: 6.158 mm^2 and 9.425 mm^2 and 1.131 mm^2 and 3.464 mm^2 and 8.042 mm^2
  Lesion growth P1: 1.131 mm^2 and 4.155 mm^2 and 15.1 mm^2 and 10.18 mm^2 and 1.767 mm^2
  Lesion growth P2: 3.142 mm^2 and 16.74 mm^2 and 5.694 mm^2 and 10.56 mm^2 and 0.196 mm^2
  Lesion growth P3: 2.545 mm^2 and 15.21 mm^2 and 8.042 mm^2 and 16.62 mm^2 and 0.126 mm^2
  Lesion growth P4: 3.801 mm^2 (2×) and 0.196 mm^2 and 16.96 mm^2
  Lesion establishment M1: 1
  Lesion establishment M2: 1
  Lesion establishment P1: 1
  Lesion establishment P2: 1
  Lesion establishment P3: 1
  Lesion establishment P4: 1 (4×) and 0
  Lesion establishment Ave: 100% (4×) and 83.33%
[1]; 10 ng/mouse s.c. daily
  Lesion burden Ave: 2.9 mm^2 and 6.7 mm^2 and 11.3 mm^2 and 3.3 mm^2 and 3.5 mm^2
  Lesion growth Ave: 2.9 mm^2 and 6.7 mm^2 and 11.3 mm^2 and 3.3 mm^2 and 4.2 mm^2
  Lesion burden Mean: 5.53 mm^2
  Lesion establishment Mean: 96.67%
  Lesion growth Mean: 5.72 mm^2
  Lesion burden P1: 1.0 mm^2 and 7.3 mm^2 and 12.6 mm^2 and 3.1 mm^2 and 1.1 mm^2
  Lesion burden P2: 3.5 mm^2 (2×) and 10.0 mm^2 and 7.0 mm^2 and 2.5 mm^2
  Lesion burden P3: 10.9 mm^2 and 4.5 mm^2 and 9.6 mm^2 and 3.5 mm^2 (2×)
  Lesion burden P4: 1.0 mm^2 and 6.7 mm^2 and 5.4 mm^2 and 3.0 mm^2 and 0.0 mm^2
  Lesion burden P5: 1.0 mm^2 and 7.1 mm^2 and 21.1 mm^2 and 3.5 mm^2 and 4.0 mm^2
  Lesion burden P6: 0.2 mm^2 and 4.5 mm^2 and 12.1 mm^2 and 3.1 mm^2 and 9.7 mm^2
  Lesion growth M1: 0.95 mm^2 and 7.069 mm^2 and 21.11 mm^2 and 3.464 mm^2 and 3.958 mm^2
  Lesion growth M2: 0.196 mm^2 and 4.524 mm^2 and 12.06 mm^2 and 3.142 mm^2 and 9.66 mm^2
  Lesion growth P1: 0.95 mm^2 and 7.288 mm^2 and 12.57 mm^2 and 3.142 mm^2 and 1.131 mm^2
  Lesion growth P2: 3.464 mm^2 (2×) and 10.02 mm^2 and 7.037 mm^2 and 2.545 mm^2
  Lesion growth P3: 10.95 mm^2 and 4.524 mm^2 and 9.621 mm^2 and 3.464 mm^2 (2×)
  Lesion growth P4: 0.95 mm^2 and 6.739 mm^2 and 5.372 mm^2 and 2.969 mm^2
  Lesion establishment M1: 1
  Lesion establishment M2: 1
  Lesion establishment P1: 1
  Lesion establishment P2: 1
  Lesion establishment P3: 1
  Lesion establishment P4: 1 (4×) and 0
  Lesion establishment Ave: 100% (4×) and 83.33%
[1]; 100 ng/mouse s.c. daily
  Lesion burden Ave: 11.8 mm^2 and 1.8 mm^2 and 3.2 mm^2 and 3.0 mm^2 and 2.9 mm^2
  Lesion growth Ave: 11.8 mm^2 and 1.8 mm^2 and 3.2 mm^2 and 3.0 mm^2 and 2.9 mm^2
  Lesion burden Mean: 4.52 mm^2
  Lesion establishment Mean: 100.00%
  Lesion growth Mean: 4.52 mm^2
  Lesion burden P1: 7.0 mm^2 and 4.5 mm^2 and 2.8 mm^2 and 2.0 mm^2 and 1.5 mm^2
  Lesion burden P2: 18.5 mm^2 and 2.8 mm^2 and 2.3 mm^2 and 3.1 mm^2 and 3.5 mm^2
  Lesion burden P3: 11.0 mm^2 and 2.3 mm^2 (2×) and 3.5 mm^2 and 4.9 mm^2
  Lesion burden P4: 8.4 mm^2 and 0.2 mm^2 and 3.8 mm^2 and 2.5 mm^2 and 1.8 mm^2
  Lesion burden P5: 12.6 mm^2 and 1.0 mm^2 and 7.5 mm^2 and 3.8 mm^2 and 2.0 mm^2
  Lesion burden P6: 13.2 mm^2 and 0.3 mm^2 (2×) and 2.8 mm^2 and 3.5 mm^2
  Lesion growth M1: 12.57 mm^2 and 0.95 mm^2 and 7.548 mm^2 and 3.801 mm^2 and 2.011 mm^2
  Lesion growth M2: 13.2 mm^2 and 0.283 mm^2 (2×) and 2.835 mm^2 and 3.464 mm^2
  Lesion growth P1: 7.037 mm^2 and 4.453 mm^2 and 2.827 mm^2 and 2.011 mm^2 and 1.539 mm^2
  Lesion growth P2: 18.47 mm^2 and 2.827 mm^2 and 2.27 mm^2 and 3.142 mm^2 and 3.464 mm^2
  Lesion growth P3: 11 mm^2 and 2.27 mm^2 (2×) and 3.464 mm^2 and 4.909 mm^2
  Lesion growth P4: 8.357 mm^2 and 0.196 mm^2 and 3.801 mm^2 and 2.545 mm^2 and 1.767 mm^2
  Lesion establishment M1: 1
  Lesion establishment M2: 1
  Lesion establishment P1: 1
  Lesion establishment P2: 1
  Lesion establishment P3: 1
  Lesion establishment P4: 1
  Lesion establishment Ave: 100%
[1]; range over groups of the model
  lesion establishment: 97.67%-100%
[2]
  fertility of mice: does not affect their fertility
[3]
  fertility of offspring from dosed females: no abnormalities noted
